In EP4624497A1, “PHOSPHOEN[…] PROBE, PREPARATION METHOD THEREFOR AND APPLICATION THEREOF” (priority 2022, dated 2024):

Tests used:
Assay in all cases: phosphoenolpyruvate titration of purified optical probe (fluorescence ratio)
Type in all cases: binding
Settings in all cases: phosphoenolpyruvate 0 to 10 mM, purified probe treated 10 minutes, ex 420/485 nm, em 528 nm
[1] = molecular target: T1, Thermus thermophilus TtPFK optical probe 254/255-TtPFK-cpYFP variant, TtPFK I253F/Q254L/R255L/G256F, cpYFP Y1G/N246F (Thermus thermophilus, UniProt P21777, form not given/G256F/I253F/Q254L/R255L)
T1 construct: the numbering corresponds to the full length of the phosphoenolpyruvate-sensitive polypeptide; His-tag; made in house; host or cells: E. coli BL21 (DE3)
Description: (§1) • 1. The expression vectors (for example, a phosphoenolpyruvate optical probe expression vector based on pCDF.) were transformed into BL21 (DE3) cells, incubated inverted overnight, and the clones were picked from the plates into 250 mL Erlenmeyer flasks, placed in a shaker at 37 °C and incubated at 220 rpm to OD=0.4-0.8, then 1/1000 (V/V) of IPTG (1 M) was added to induce expression at 18 °C for 24-36 hours. • 2. Upon completion of inducible expression, cells were harvested by centrifugation at 4000 rpm for 30 min, resuspended in 50 mM phosphate buffer and disrupted ultrasonically until the broth were clear, centrifuged at 9600 rpm at 4 °C for 20 min. • 3. The centrifuged supernatant was used to obtain protein by purification through a self-packed nickel column affinity chromatography column, and the protein obtained after nickel column affinity chromatography was further used to obtain protein dissolved in 100 mM HEPES buffer (pH 7.4). • 4. After purified proteins were subjected to SDS-PAGE, probes were diluted to a protein solution having a final concentration of 0.2-5 µM using assay buffer (100 mm HEPES, 100 mM NaCl, pH 7.4). Phosphoenolpyruvate was formulated as a stock solution at a final concentration of 50 mM with the assay buffer (100 mM HEPES, 100 mM NaCl, pH 7.4). • 5. 100 µl 1 µM of protein solution was taken, incubated at 37 °C for 10 min, phosphoenolpyruvate was added for titration, and the fluorescence intensity of 528 nm emission after 420 nm and 485 nm fluorescence excitation of the protein was measured. The fluorescence excitation and emission determination of the samples were done using a multifunctional fluorescence microplate reader. • 6. 100 µl 1 µM of protein solution was taken, incubated at 37 °C for 10 min, and phosphoenolpyruvate was added to determine the absorption and fluorescence spectra of the proteins. Determination of the absorption and fluorescence spectra of the samples was done by spectrophotometer and spectrofluorometer.
(§2) The recombinant plasmids of the mutation library were transformed into BL21 (DE3) to induce expression, and the purified probe protein was subjected to phosphoenolpyruvate-responsive screening, dividing the detection signal of the fusion fluorescent protein containing 2 mM phosphoenolpyruvate by that of the fusion fluorescent protein without phosphoenolpyruvate. […]

[2] = molecular target: T2, Thermus thermophilus TtPFK optical probe 254/255-TtPFK-cpYFP variant, TtPFK I253V/Q254L/R255F/G256Y, cpYFP Y1H/N246F (Thermus thermophilus, UniProt P21777, form not given/G256Y/I253V/Q254L/R255F)
T2 construct: His-tag; made in house; host or cells: E. coli BL21 (DE3)
Description: as §1, §2

[3] = molecular target: T3, Thermus thermophilus TtPFK optical probe 254/255-TtPFK-I253K/Q254L/R255L/G256F-cpYFP-Y1S, SEQ ID NO: 12 (Thermus thermophilus, UniProt P21777, form not given/G256F/I253K/Q254L/R255L)
T3 construct: the numbering corresponds to the full length of the phosphoenolpyruvate-sensitive polypeptide; His-tag; made in house; host or cells: E. coli BL21 (DE3)
Description: as §1, §2

[4] = molecular target: T4, Thermus thermophilus TtPFK optical probe 254/255-TtPFK-cpYFP variant, TtPFK I253Y/Q254I (Thermus thermophilus, UniProt P21777, form not given/I253Y/Q254I/Q254N)
T4 construct: the numbering corresponds to the full length of the phosphoenolpyruvate-sensitive polypeptide; His-tag; made in house; host or cells: E. coli BL21 (DE3)
Description: as §1, §2

[5] = molecular target: T5, Thermus thermophilus phosphofructokinase TtPFK (SEQ ID NO: 1) optical probe 254/256-TtPFK-cpYFP, no mutation (Thermus thermophilus, UniProt P21777, form not given/R255N)
T5 construct: the numbering corresponds to the full length of the phosphoenolpyruvate-sensitive polypeptide; His-tag; made in house; host or cells: E. coli BL21 (DE3)
Description: as §1, §2

[6] = molecular target: T6, Thermus thermophilus TtPFK optical probe 254/256-TtPFK-cpYFP variant, TtPFK I253D/Q254L/G256V/G257L, cpYFP Y1T/N246F (Thermus thermophilus, UniProt P21777, form not given/G256V/G257L/I253D/Q254L)
T6 construct: the numbering corresponds to the full length of the phosphoenolpyruvate-sensitive polypeptide; His-tag; made in house; host or cells: E. coli BL21 (DE3)
Description: as §1, §2

[7] = molecular target: T7, Thermus thermophilus TtPFK optical probe 254/255-TtPFK-cpYFP variant, TtPFK I253V/Q254A/R255F/G256Y, cpYFP N246F (Thermus thermophilus, UniProt P21777, form not given/G256Y/I253V/Q254A/R255F)
T7 construct: the numbering corresponds to the full length of the phosphoenolpyruvate-sensitive polypeptide; His-tag; made in house; host or cells: E. coli BL21 (DE3)
Description: as §1, §2

[8] = molecular target: T8, Thermus thermophilus TtPFK optical probe 254/256-TtPFK-cpYFP variant, TtPFK I253S/Q254L/G256V/G257L, cpYFP Y1T/N246F (Thermus thermophilus, UniProt P21777, form not given/G256V/G257L/I253S/Q254L)
T8 construct: the numbering corresponds to the full length of the phosphoenolpyruvate-sensitive polypeptide; His-tag; made in house; host or cells: E. coli BL21 (DE3)
Description: as §1, §2

[9] = molecular target: T9, Thermus thermophilus phosphofructokinase TtPFK (SEQ ID NO: 1) optical probe 254/255-TtPFK-cpYFP, no mutation, SEQ ID NO: 10 (Thermus thermophilus, UniProt P21777)
T9 construct: His-tag; made in house; host or cells: E. coli BL21 (DE3)
Description: as §1, §2

[10] = molecular target: T10, Thermus thermophilus TtPFK optical probe 254/255-TtPFK-cpYFP variant, TtPFK Q254V/R255I/G256H, cpYFP N246W (Thermus thermophilus, UniProt P21777, form not given/G256H/Q254V/R255I)
T10 construct: the numbering corresponds to the full length of the phosphoenolpyruvate-sensitive polypeptide; His-tag; made in house; host or cells: E. coli BL21 (DE3)
Description: as §1, §2

[11] = molecular target: T11, Thermus thermophilus TtPFK optical probe 254/255-TtPFK-cpYFP variant, TtPFK I253N/Q254L/R255L/G256F, cpYFP Y1S/N246F (Thermus thermophilus, UniProt P21777, form not given/G256F/I253N/Q254L/R255L)
T11 construct: the numbering corresponds to the full length of the phosphoenolpyruvate-sensitive polypeptide; His-tag; made in house; host or cells: E. coli BL21 (DE3)
Description: as §1, §2

[12] = molecular target: T12, Thermus thermophilus TtPFK optical probe 254/255-TtPFK-cpYFP variant, TtPFK Q254L/R255L/G256H, cpYFP Y1S (Thermus thermophilus, UniProt P21777, form not given/G256H/Q254L/R255L)
T12 construct: the numbering corresponds to the full length of the phosphoenolpyruvate-sensitive polypeptide; His-tag; made in house; host or cells: E. coli BL21 (DE3)
Description: as §1, §2

[13] = molecular target: T13, Thermus thermophilus TtPFK optical probe 254/256-TtPFK-I253Q/Q254L/G256V/G257L-cpYFP-Y1T/N246F (Thermus thermophilus, UniProt P21777, form not given/G256V/G257L/I253Q/Q254L)
T13 construct: the numbering corresponds to the full length of the phosphoenolpyruvate-sensitive polypeptide; His-tag; made in house; host or cells: E. coli BL21 (DE3)
Description: as §1, §2

C=C(OP(=O)(O)O)C(=O)O [phosphoenolpyruvate, Phosphoenolpyruvate]
Kd [1]: 5.56 µM | Kd [2]: 81.7 µM | Kd [3]: 17.5 µM | Kd [4]: 1.55 µM | Kd [5]: 2.15 µM | Kd [6]: 13.4 µM | Kd [7]: 32 µM | Kd [8]: 8.93 µM | Kd [9]: 0.8 µM | Kd [10]: 11.4 µM | Kd [11]: 9.66 µM | Kd [12]: 8.5 µM | Kd [13]: 13.1 µM
